The experiment concerns the target TPK enzyme (Homo sapiens, UniProt Q9H3S4). Kind of experiment: TPK enzyme activity test (TDP formation from thiamine and ATP, HPLC detection). It is filed as biochemical. The method, then:
The purpose of this example was to test the promoting effect of compounds on TPK enzyme activity and evaluate the in vitro activity of the compounds based on EC50 and Emax.
1.1) The constant-temperature water-bath shaker was pre-heated half an hour in advance at a pre-heating temperature of 37° C.
1.2) The stock solution of the compound to be tested was taken out, allowed to thaw at room temperature, and then diluted to the required concentration.
1.3) The required reagents were placed on ice to thaw.
2.1) For each reaction system, TPK enzyme solution, Tris-HCl buffer solution, and ATP solution were added. The concentration of ATP used was 1-500 mM. The above three solutions were formulated into a homogeneous mixture.
2.2) The mixture of the above three solutions was dispensed into centrifuge tubes. Then, the compound at the required concentration was added to each centrifuge tube. Finally, thiamine solution (1-100 μM) was added. After the addition of the above system was completed, the centrifuge tubes were tightly capped, inserted into a floating board, and placed in the constant-temperature water-bath shaker that had been pre-heated to 37° C. for incubation for 0.5-2.0 hours.
2.3) After the incubation was completed, perchloric acid stop solution was added and mixed well. Samples were taken into 1.5 mL centrifuge tubes and stored at −20° C.
3.1) The samples stored at −20° C. were taken out, thawed at room temperature, and then subjected to derivatization treatment. The samples were placed in centrifuge tubes, a potassium ferricyanide derivatization reagent was added, and finally phosphoric acid stop solution was added to stop the reaction.
3.2) The derivatized samples were placed in sample vials for liquid chromatography analysis, and the contents of TDP/thiamine were detected by high performance liquid chromatography. TKP enzyme activity=TDP (nM)/mg protein/min.
The effects of the compounds of the present invention on TPK enzyme activity at different concentrations were determined according to the above procedures.

The mark [1] stands for this setting: promoting effect on TPK enzyme activity, calculated with the effect of DMSO on TPK enzyme activity as 100%, read-out: Emax.
Setting [2] is: promoting effect on TPK enzyme activity.

Read-outs that look alike come from different tables or passages of the source.

Broadly, the Emax is the size of the effect at its maximum, as opposed to the concentration needed. In general, EC50 refers to the concentration that produces a half-maximal response.

Sequence of TPK enzyme (Q9H3S4 whole entry): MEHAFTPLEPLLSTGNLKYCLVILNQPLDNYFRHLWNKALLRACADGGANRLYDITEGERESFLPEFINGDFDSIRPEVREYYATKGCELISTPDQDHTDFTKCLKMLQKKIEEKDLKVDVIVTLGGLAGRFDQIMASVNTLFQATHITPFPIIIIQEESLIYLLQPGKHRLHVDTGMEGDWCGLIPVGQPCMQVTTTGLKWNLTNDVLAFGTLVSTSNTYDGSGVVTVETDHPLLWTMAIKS

As to `C[C@@H]1C[C@@H](COc2ccc3c(c2)NC(=O)CC3)CN(CC[C@@H](N)c2cccc(Cl)c2Cl)C1` [Compound 135, 7-(((3R,5R)-1-((R)-3-amino-3-(2,3-dichlorophenyl)propyl)-5-methylpiperidin-3-yl)methoxy)-3,4-dihydroquinolin-2(1H)-one], the Emax under setting [1] is 133%.

The compound `O=C1NCCN1CCN1CCC(c2cn(-c3ccc(F)cc3)c3ccc(Cl)cc23)CC1` [Compound 136] gave an EC50 under setting [2] of 2.79 µM. Further, the Emax under setting [1] was 137%.

Consider `CC(C)(C)NC(=O)NC(=O)CN1CCC(c2c[nH]c3ccccc23)CC1` [Compound 137], for which the EC50 under setting [2] was determined as 110 µM. Also, the Emax under setting [1] is 146%.

With `O=C(CN1CCC(c2c[nH]c3ccccc23)CC1)NC(=O)NC1CC1` [Compound 138], under setting [2], the EC50 was determined as 1.01 µM. Further, under setting [1], the Emax was 180%.

`O=C(CCc1c[nH]c2ccccc12)N1CCN(CC(=O)N2CCCC2)CC1` [Compound 139] gave an EC50 under setting [2] of 8.09 µM. Besides, the Emax under setting [1] is 191%.

Regarding `O=C(CN1CCN(C(=O)CCC2Cc3ccccc3NC2=O)CC1)Nc1ccccc1Cl` (stereo not drawn) [Compound 140], under setting [2], the response was half-maximal at 8.75 µM (EC50). Further, the Emax under setting [1] was 203%.

As for `O=C1CCc2cc(OCC(=O)N3CCCN(Cc4ccc(Cl)cc4)CC3)ccc2N1` [Compound 141], the Emax under setting [1] was 124%.

Regarding `Cc1cc2c(cc1S(=O)(=O)N(C)CC(=O)NCc1ccc(F)cc1)OCC(=O)N2` [Compound 142], the Emax under setting [1] was 126%.

With `CCC1Oc2cc(S(=O)(=O)N(C)CC(=O)NCc3ccc(Cl)cc3)c(C)cc2NC1=O` (stereo not drawn) [Compound 143], under setting [1], the Emax is 122%.

As to `CN(CC(=O)NCc1ccc(F)cc1)S(=O)(=O)c1ccc2[nH]c(=O)ccc2c1` [Compound 144], under setting [1], the Emax was 121%.

`CN(CC(=O)NCc1ccc(Cl)cc1)S(=O)(=O)c1ccc2[nH]c(=O)ccc2c1` [Compound 145]: under setting [1], the Emax is 120%.

Turning to `O=C(CN1CCN(c2ccc(F)cc2)CC1)NC(=O)NCCc1c[nH]c2ccc(F)cc12` [Compound 146], the EC50 under setting [2] amounted to 1.34 µM. Under setting [1], the Emax was 175%.

In the case of `O=C(CCn1cnc2sccc2c1=O)N1CCN(c2cccc(C(F)(F)F)c2)CC1` [Compound 147], the Emax under setting [1] is 147%.

On to `Cc1cc(=O)oc2cc(OCC(=O)N3CCN(c4cccc(C(F)(F)F)c4)CC3)ccc12` [Compound 148], for which the EC50 under setting [2] is 1.23 µM. The Emax under setting [1] is 165%.

As to `Cc1ccc(Cl)cc1N1CCN(CCCNC(=O)C2COc3ccccc3C2)CC1` (stereo not drawn) [Compound 149], under setting [1], the Emax is 182%.

For the compound `COc1cccc2cc(C(=O)N3CCN(c4cccc(C(F)(F)F)c4)CC3)c(=O)oc12` [Compound 150], under setting [2], the response was half-maximal at 0.139 µM (EC50). Further, under setting [1], the Emax is 212%.

Regarding `CCCc1cc(=O)n2nc(N3CCC(C(=O)NCc4ccc(CC)cc4)CC3)sc2n1` [Compound 151], the EC50 under setting [2] stood at 3.36 µM. Also, the Emax under setting [1] is 155%.

Compound `CC(CNC(=O)COc1ccc2c(c1)CCC(=O)N2)N1CCCC1` (stereo not drawn) [Compound 152] yielded an EC50 under setting [2] of 9.63 µM. Under setting [1], the Emax was 161%.

As to `CC(C)C(CNC(=O)COc1ccc2c(c1)CCC(=O)N2)N1CCc2ccccc2C1` (stereo not drawn) [Compound 153], under setting [2], it took 7.86 µM to reach a half-maximal effect (EC50). Moreover, the Emax under setting [1] was 201%.

As to `O=C1COc2ccc(C(=O)COC(=O)C=Cc3ccc(S(=O)(=O)N4CCCCCC4)cc3)cc2N1` [Compound 154], the Emax under setting [1] is 132%.

As to `O=C1COc2ccc(C(=O)CSCCSCC(=O)c3ccc4c(c3)NC(=O)CO4)cc2N1` [Compound 155], the Emax under setting [1] was 125%.

For the compound `CC(NC(=O)Nc1nncs1)c1ccc2c(c1)CCC(=O)N2` (stereo not drawn) [Compound 156], the Emax under setting [1] was 120%.

In turn, `O=C1CCc2cc(S(=O)(=O)N3CCN(c4cccc(C(F)(F)F)c4)CC3)ccc2N1` [Compound 157] gave an EC50 under setting [2] of 2.61 µM. In addition, under setting [1], the Emax was 155%.

`CC(=O)N1CCCc2cc(C(=O)N3CCN(c4cccc(C(F)(F)F)c4)CC3)ccc21` [Compound 165, 1-(6-(4-(3-(trifluoromethyl)phenyl)piperazine-1-carbonyl)-3,4-dihydroquinolin-1(2H)-yl)ethan-1-one] gave an Emax of 148%. Under setting [2], the half-maximal effective concentration (EC50) worked out at 9.8 µM.

For `CC(=O)N1CCCc2cc(C(=O)N3CCN(c4cccc(Cl)c4Cl)CC3)ccc21` [Compound 166, 1-(6-(4-(2,3-dichlorophenyl)piperazine-1-carbonyl)-3,4-dihydroquinolin-1(2H)-yl)ethan-1-one], the Emax turned out to be 156%. In addition, under setting [2], the EC50 came to 4.25 µM.

Under setting [2], `CC(=O)N1CCCc2cc(C(=O)N3CCC(Cc4ccc(F)cc4)CC3)ccc21` [Compound 168, 1-(6-(4-(4-fluorobenzyl)piperidine-1-carbonyl)-3,4-dihydroquinolin-1(2H)-yl)ethan-1-one] came in with an EC50 of 5.43 µM. Under setting [1], the Emax was 151%.

The compound `COc1ccc(C(=O)NCCC(=O)N2CCN(c3cccc(Cl)c3Cl)CC2)cc1OC` [Compound 169, N-(3-(4-(2,3-dichlorophenyl)piperazin-1-yl)-3-oxopropyl)-3,4-dimethoxybenzamide] yielded an Emax of 148%. The same compound displayed an EC50 under setting [2] of 7.23 µM.

Turning to `COc1ccc(C(=O)NCCCC(=O)N2CCN(c3cccc(Cl)c3Cl)CC2)cc1OC` [Compound 170], the Emax amounted to 156%. The EC50 under setting [2] stood at 4.39 µM.

In turn, `COc1ccc(C(=O)NCCCCC(=O)N2CCN(c3cccc(Cl)c3Cl)CC2)cc1OC` [Compound 171, N-(5-(4-(2,3-dichlorophenyl)piperazin-1-yl)-5-oxopentyl)-3,4-dimethoxybenzamide] yielded an Emax of 127%.

As for `COC(=O)c1cc(OC)c(OC)cc1C(=O)N1CCN(c2cccc(Cl)c2Cl)CC1` [Compound 173, methyl 2-(4-(2,3-dichlorophenyl)piperazine-1-carbonyl)-4,5-dimethoxybenzoate], the Emax was found to be 132%.

As to `O=C(CCOCc1ccc(N2CCCCC2)nc1)NCCc1cccc2ccc(O)cc12` [Compound 178, N-(2-(7-hydroxynaphthalen-1-yl)ethyl)-3-((6-(piperidin-1-yl)pyridin-3-yl)methoxy)propanamide], the Emax was 120%.

The values above are taken from US20260076975A1, “TPK AGONIST AND METHOD FOR USING SAME TO TREAT NEURODEGENERATIVE DISEASES” (SHANGHAI RAISING PHARMACEUTICAL CO., LTD., priority 2022, published 2026).
